pIC50: −log10 of the molar value. Converted amounts (≈) assume the structure as drawn.
Columns and labels:
[1] = Solubility in phosphate buffer at pH 6.8; type: physicochemical
[2] = biological target: 3',5'-cyclic-AMP phosphodiesterase 4B (Homo sapiens, UniProt Q07343); assay: Inhibition of PDE4B (unknown origin)
[3] = biological target: High affinity 3',5'-cyclic-AMP phosphodiesterase 7A (Homo sapiens, UniProt Q13946); assay: Inhibition of PDE7A (unknown origin)
Lymphocyte = assay: Inhibition of IL2 production from mouse activated lymphocytes; type: functional, cell-based
[4] = biological target: cGMP-inhibited 3',5'-cyclic phosphodiesterase 3A (Homo sapiens, UniProt Q14432); assay: Inhibition of PDE3A (unknown origin)
[5] = biological target: cGMP-specific 3',5'-cyclic phosphodiesterase (Homo sapiens, UniProt O76074); assay: Inhibition of PDE5A (unknown origin)

3',5'-cyclic-AMP phosphodiesterase 4B, sequence (Q07343 whole entry): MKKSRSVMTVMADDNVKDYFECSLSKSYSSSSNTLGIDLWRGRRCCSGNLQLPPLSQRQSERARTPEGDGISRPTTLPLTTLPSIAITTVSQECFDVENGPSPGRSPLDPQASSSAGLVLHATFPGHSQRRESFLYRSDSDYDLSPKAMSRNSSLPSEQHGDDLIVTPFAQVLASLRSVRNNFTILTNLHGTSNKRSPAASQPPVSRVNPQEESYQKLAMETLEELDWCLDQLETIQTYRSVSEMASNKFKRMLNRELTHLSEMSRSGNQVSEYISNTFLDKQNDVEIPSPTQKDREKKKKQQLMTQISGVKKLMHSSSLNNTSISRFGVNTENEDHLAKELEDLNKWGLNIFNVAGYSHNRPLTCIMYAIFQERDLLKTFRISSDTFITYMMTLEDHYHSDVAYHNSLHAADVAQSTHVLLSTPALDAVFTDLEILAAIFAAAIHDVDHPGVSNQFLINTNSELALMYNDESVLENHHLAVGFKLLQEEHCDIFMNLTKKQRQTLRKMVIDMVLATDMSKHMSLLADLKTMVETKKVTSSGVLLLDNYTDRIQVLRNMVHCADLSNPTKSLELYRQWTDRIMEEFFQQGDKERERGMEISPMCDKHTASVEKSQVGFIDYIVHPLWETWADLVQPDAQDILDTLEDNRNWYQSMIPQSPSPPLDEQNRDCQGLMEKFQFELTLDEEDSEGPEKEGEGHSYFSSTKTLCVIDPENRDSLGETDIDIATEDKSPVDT
High affinity 3',5'-cyclic-AMP phosphodiesterase 7A, sequence (Q13946 whole entry): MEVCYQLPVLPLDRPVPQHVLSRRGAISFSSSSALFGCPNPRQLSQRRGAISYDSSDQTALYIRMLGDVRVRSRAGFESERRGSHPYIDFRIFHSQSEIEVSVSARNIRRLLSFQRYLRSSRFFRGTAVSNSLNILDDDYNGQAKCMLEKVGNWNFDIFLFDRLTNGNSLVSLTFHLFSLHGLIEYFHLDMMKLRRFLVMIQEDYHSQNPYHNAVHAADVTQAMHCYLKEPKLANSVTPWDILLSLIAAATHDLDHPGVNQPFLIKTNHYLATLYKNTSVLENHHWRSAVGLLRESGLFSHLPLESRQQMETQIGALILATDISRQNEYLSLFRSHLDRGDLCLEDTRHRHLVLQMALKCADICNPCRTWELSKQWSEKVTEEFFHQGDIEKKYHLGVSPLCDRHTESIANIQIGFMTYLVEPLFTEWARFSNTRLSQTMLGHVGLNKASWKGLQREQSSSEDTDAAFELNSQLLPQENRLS
cGMP-inhibited 3',5'-cyclic phosphodiesterase 3A, sequence (Q14432 whole entry): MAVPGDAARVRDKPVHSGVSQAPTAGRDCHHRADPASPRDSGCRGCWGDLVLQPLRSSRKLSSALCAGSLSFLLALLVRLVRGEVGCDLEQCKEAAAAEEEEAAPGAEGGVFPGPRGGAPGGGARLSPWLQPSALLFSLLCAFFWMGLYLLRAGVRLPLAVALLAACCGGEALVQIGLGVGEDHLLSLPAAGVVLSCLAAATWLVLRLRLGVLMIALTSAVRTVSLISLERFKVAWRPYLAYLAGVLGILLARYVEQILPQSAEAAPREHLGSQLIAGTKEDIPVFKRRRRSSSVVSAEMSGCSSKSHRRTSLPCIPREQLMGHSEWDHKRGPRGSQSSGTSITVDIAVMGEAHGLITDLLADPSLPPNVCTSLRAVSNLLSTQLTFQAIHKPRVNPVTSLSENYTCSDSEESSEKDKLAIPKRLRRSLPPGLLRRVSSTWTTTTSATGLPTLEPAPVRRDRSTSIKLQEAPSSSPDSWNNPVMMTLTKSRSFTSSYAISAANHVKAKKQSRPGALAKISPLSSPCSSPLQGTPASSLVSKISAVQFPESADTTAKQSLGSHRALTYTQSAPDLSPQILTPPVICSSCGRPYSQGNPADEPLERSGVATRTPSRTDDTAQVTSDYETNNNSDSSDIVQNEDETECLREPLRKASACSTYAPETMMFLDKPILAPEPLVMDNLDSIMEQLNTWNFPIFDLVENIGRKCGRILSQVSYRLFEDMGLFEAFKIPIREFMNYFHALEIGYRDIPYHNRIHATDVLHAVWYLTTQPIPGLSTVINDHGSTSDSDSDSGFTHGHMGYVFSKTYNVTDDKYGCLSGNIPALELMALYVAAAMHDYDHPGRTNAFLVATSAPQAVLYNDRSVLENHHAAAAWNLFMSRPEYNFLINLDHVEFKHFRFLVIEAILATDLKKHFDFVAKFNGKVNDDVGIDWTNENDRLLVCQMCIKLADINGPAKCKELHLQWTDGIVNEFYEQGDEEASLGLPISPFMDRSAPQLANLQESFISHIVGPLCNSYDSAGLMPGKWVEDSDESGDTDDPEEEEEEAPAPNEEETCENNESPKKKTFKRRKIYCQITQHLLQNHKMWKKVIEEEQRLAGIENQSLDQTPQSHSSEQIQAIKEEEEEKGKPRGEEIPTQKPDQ

`CCn1c(NC2CCCC2)nc2ccsc2c1=O` gave a solubility [1] of 12.1 µg/mL (≈ 45.9 µM).
For `CCn1c(Nc2ccccc2)nc2ccsc2c1=O`, the pIC50 [2] was 5.13, the solubility [1] was 19.5 µg/mL (≈ 71.9 µM) and the pIC50 [3] was 6.54.
In the case of `CCn1c(Nc2ccccc2C)nc2ccsc2c1=O`, the pIC50 [2] was 5.37, the solubility [1] was 10.1 µg/mL (≈ 35.4 µM) and the pIC50 [3] was 7.06.
Work on `CCn1c(Nc2cccc(C)c2)nc2ccsc2c1=O` yielded a solubility [1] of 65.5 µg/mL (≈ 230 µM) and a pIC50 [3] of under 6.00.
Work on `CCn1c(Nc2ccc(C)cc2)nc2ccsc2c1=O` yielded a solubility [1] of 84 µg/mL (≈ 294 µM) and a pIC50 [3] of under 6.00.
Work on `CCc1ccccc1Nc1nc2ccsc2c(=O)n1CC` yielded a solubility [1] of 1.9 µg/mL (≈ 6.35 µM) and a pIC50 [3] of under 6.00.
With `CCn1c(Nc2ccccc2C#N)nc2ccsc2c1=O` the solubility [1] was 0.4 µg/mL (≈ 1.35 µM) and the pIC50 [3] was 5.64.
Work on `CCn1c(Nc2ccccc2F)nc2ccsc2c1=O` yielded a pIC50 [2] of 5.57, a solubility [1] of 26.1 µg/mL (≈ 90.2 µM) and a pIC50 [3] of 7.21.
Compound `CCn1c(Nc2ccccc2Cl)nc2ccsc2c1=O` has a pIC50 [2] of 5.52, a solubility [1] of 6.3 µg/mL (≈ 20.6 µM) and a pIC50 [3] of 7.39.
Compound `CCn1c(Nc2cccnc2)nc2ccsc2c1=O` has a solubility [1] of 41.6 µg/mL (≈ 153 µM) and a pIC50 [3] of under 6.00.
In the case of `CCn1c(Nc2ccncc2)nc2ccsc2c1=O`, the pIC50 [2] was 4.52, the solubility [1] was 111 µg/mL (≈ 408 µM) and the pIC50 [3] was 6.20.
In the case of `CCn1c(Nc2ccncc2F)nc2ccsc2c1=O`, the pIC50 [2] was 5.28, the solubility [1] was 120 µg/mL (≈ 413 µM) and the pIC50 [3] was 7.22.
`CCn1c(Nc2ccncc2F)nc2c(C#N)csc2c1=O` gave a pIC50 [2] of 6.17, a solubility [1] of 3.5 µg/mL (≈ 11.1 µM) and a pIC50 [3] of 7.60.
With `CCn1c(Nc2ccncc2F)nc2c(C(C)O)csc2c1=O` (stereo not given) the pIC50 [2] was 6.21, the solubility [1] was 5.4 µg/mL (≈ 16.1 µM) and the pIC50 [3] was 8.06. For the same compound, the pIC50 (Lymphocyte) was 5.77.
For `CCn1c(Nc2ccncc2F)nc2c(C(C)(C)O)csc2c1=O`, the pIC50 [2] was 7.25, the solubility [1] was 17.9 µg/mL (≈ 51.4 µM) and the pIC50 [3] was 8.68. It also gave a pIC50 (Lymphocyte) of 6.59.
`CCn1c(Nc2ccncc2F)nc2c(CCCO)csc2c1=O` gave a pIC50 [2] of 6.74, a solubility [1] of 31.3 µg/mL (≈ 89.8 µM) and a pIC50 [3] of 8.41. For the same compound, the pIC50 (Lymphocyte) was 6.32.
With `CCn1c(Nc2ccncc2F)nc2c(C3CCN(C(=O)OC)CC3)csc2c1=O` the pIC50 [2] was 6.51, the solubility [1] was 0.9 µg/mL (≈ 2.09 µM) and the pIC50 [3] was 8.96.
With `CCn1c(Nc2ccncc2F)nc2c(C3CCCN(C(=O)OC)C3)csc2c1=O` (stereo not given) the pIC50 [2] was 6.55, the solubility [1] was 48.9 µg/mL (≈ 113 µM) and the pIC50 [4] was 7.54. The pIC50 [3] was 9.17, the pIC50 (Lymphocyte) was 6.80 and the pIC50 [5] was 6.28.
With `CCn1c(Nc2ccncc2F)nc2c(C3CCCN(C(=O)C(C)(C)CO)C3)csc2c1=O` (stereo not given) the pIC50 [2] was 6.74, the solubility [1] was 22.7 µg/mL (≈ 47.9 µM) and the pIC50 [4] was 7.43. It also gave a pIC50 [3] of 8.92, a pIC50 (Lymphocyte) of 6.89 and a pIC50 [5] of under 5.00.
For `CCn1c(Nc2ccncc2F)nc2c(C3CCCN(C(=O)C4(C#N)CC4)C3)csc2c1=O` (stereo not given), the pIC50 [2] was 7.70, the solubility [1] was 28.1 µg/mL (≈ 60.2 µM) and the pIC50 [4] was 7.77. The pIC50 [3] was 9.49, the pIC50 (Lymphocyte) was over 7.00 and the pIC50 [5] was 5.54.
